Columns and labels:
[1] = test system: spontaneous motor activity; test: spontaneous motor activity in rodents (sedative properties), procedure of Dews; type: in vivo; conditions: 100-200 mg/kg, mice or rats
Procedure: The sedative properties of the compounds of this invention were determined by measuring spontaneous motor activity in rodents by the procedure described by P. Dews, Brit. J. Pharmacol. 8, 46 (1953).

[2] = test system: audiogenic seizures; test: protection against audiogenic seizures in DBA mice (method of Simler et al.); type: in vivo, mice of the DBA strain; conditions: 50-200 mg/kg
Source text: This ability is further shown by the protective effect of this treatment on audiogenic seizures in mice of the DBA strain measured by the general method described by Simler et al., Biochem. Pharmacol. 22, 1701 (1973), which is currently used to evidence antiepileptic activity.

[3] = test system: reserpine ptosis; test: reserpine ptosis test of Rubin et al. (anti-depressant activity); type: in vivo; conditions: 50 mg/kg i.p. in mice one hour after 2 mg/kg i.v. reserpine; 3 hours after drug administration; control reserpinized animals 6.5
Procedure: The ability of the compounds of this invention at doses ranging from 50 to 200 mg/kg, to alleviate reserpine ptosis has been shown by the classical test of B. Rubin et al., J. Pharmacol. 120, 125 (1957), which is currently used to determine anti-depressant activity. For instance, in intraperitoneal injection 50 mg/kg of 4-amino-5-yne-hexanoic acid in mice, one hour after an intravenous injection of 2 mg/kg reserpine dissolved in 2% ascorbic acid/water results in a palpebral aperture of 5.5, 3 hours after drug administration as compared to 6.5 for control reserpinized animals.

[4] = loss of body weight in rats on daily dosing; type: in vivo; conditions: rats weighing 190 g; oral 25 mg/kg for four days (not a sedative dose); saline group 250 g
Procedure: For instance, rats weighing 190 g, when given for four days, oral doses of 25 mg/kg 4-amino-5-yne-hexanoic acid (which is not a sedative dose) weigh only 170 gms as compared to 250 g for animals of the same group which were given saline for the same period.

[5] = test system: γ-aminobutyric acid transaminase; conditions: literature compounds; cited from earlier work
[6] = test system: brain level of γ-aminobutyric acid; conditions: literature compound, cited from earlier work

C#CC(N)CCC(=O)O (racemic) [4-amino-5-yne-hexanoic acid, 4-Amino-5-yne-hexanoic acid]
time after administration at which decreased motor activity is still observable ([1]; i.v., i.p. or oral): ≥ 48 h | time at which decreased motor activity appears after administration ([1]; i.v., i.p. or oral): 1 h | effect on spontaneous motor activity ([1]; intravenous, intraperitoneal or oral route): substantially decreased motor activity | duration of protection against audiogenic seizures [2]: over 16 hours | protection against audiogenic seizures ([2]; one hour after treatment): complete protection | palpebral aperture [3]: 5.5 | body weight after treatment [4]: 170 gms

NCC#CC(=O)O [4-aminotetrolic acid]
type of inhibition of γ-aminobutyric acid transaminase [5]: competitive reversible inhibitor

CCCC(CCC)C(=O)O [n-dipropylacetate]
type of inhibition of γ-aminobutyric acid transaminase [5]: competitively inhibiting | effect on brain levels of γ-aminobutyric acid [6]: elevate brain levels of γ-aminobutyric acid | duration of the effect on brain γ-aminobutyric acid ([6]; reversible effect): about 2 hours

Reference: US3959356A, “Acetylene derivatives of amino acids” (Richardson-Merrell Inc., priority 1975, dated 1976)
